In one test the target is T1, CDK2/Cyclin E2 (Homo sapiens, UniProt P24941).
T1 construct: Recombinant protein complex CDK2/Cyclin E2, expressed from insect cell, was purchased from ProQinase
Nature of the test: CDK2/CyclinE2 Enzymatic Activity Assay (TR-FRET). The format is biochemical. Conditions: ATP 1 mM final, read-out: CDK2_E1 IC50. The gist of the method: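 Recombinant insect-cell CDK2/Cyclin E2 (1 nM) phosphorylated ULight-4E-BP1 (50 nM) with 1 mM ATP in HEPES pH 7.4 buffer, after 20 min compound preincubation; MgCl2 (10 mM) started the 45 min reaction at 37° C. Europium anti-phospho-4E-BP1 TR-FRET read; 9-dose IC50 by 4-parameter fit.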
Background: Time-resolved FRET reads energy transfer from a long-lived donor to a nearby acceptor.

A further test deals with OVCAR3 p-RB. Nature of the test: pRB ICW Assay in OVCAR3 Cells. Conditions: Homo sapiens, OVCAR-3, incubated with compound for 2 hours. The test is classed as cell-based. The gist of the method: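 In-Cell Western on OVCAR3: phospho-RB antibody signal with DRAQ5 counterstain read at 700 and 800 nm after fixation. Compounds were applied for 2 h at 37° C. as 9-point ½-log dilutions in duplicate; 10 μM reference compound defined full inhibition.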

In the next test the target is T2, CDK4/Cyclin D1 (Homo sapiens, UniProt P11802).
T2 construct: purchased ProQinase; host or cells: insect cell
The test can be described thus: CDK4/CyclinD1 Enzymatic Activity Assay (TR-FRET). The format is biochemical. The following applies: ATP 2 mM final, read-out: CDK4_D1 IC50. The method, boiled down:
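Insect-cell-expressed CDK4/Cyclin D1 (1 nM) with ULight-4E-BP1 (100 nM) and 2 mM ATP in HEPES pH 7.4; 9-dose 3-fold compound series preincubated 20 min, reaction started with 10 mM MgCl2, 45 min at 37° C. Europium anti-P-4E-BP1 TR-FRET read; IC50 from 4-parameter Hill fit.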

The structures appear in SMILES notation.

T2 sequence (P11802 whole entry): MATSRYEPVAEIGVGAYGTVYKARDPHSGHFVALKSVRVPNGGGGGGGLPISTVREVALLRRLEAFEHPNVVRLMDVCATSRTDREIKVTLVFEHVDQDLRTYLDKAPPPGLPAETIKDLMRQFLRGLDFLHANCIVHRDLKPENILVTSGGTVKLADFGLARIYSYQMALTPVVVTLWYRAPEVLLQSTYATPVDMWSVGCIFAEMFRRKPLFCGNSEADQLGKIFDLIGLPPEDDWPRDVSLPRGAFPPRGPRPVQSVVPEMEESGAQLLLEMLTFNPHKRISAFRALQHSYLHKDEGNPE
T2 sequence (P24385 whole entry partner): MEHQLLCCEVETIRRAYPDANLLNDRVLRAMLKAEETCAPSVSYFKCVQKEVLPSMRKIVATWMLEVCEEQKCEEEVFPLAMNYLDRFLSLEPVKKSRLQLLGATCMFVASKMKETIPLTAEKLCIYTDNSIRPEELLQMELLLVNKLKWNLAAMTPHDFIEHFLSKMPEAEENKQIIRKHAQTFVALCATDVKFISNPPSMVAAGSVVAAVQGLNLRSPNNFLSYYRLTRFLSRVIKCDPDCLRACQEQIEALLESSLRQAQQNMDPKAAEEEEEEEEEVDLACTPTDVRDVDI

As usually defined, the IC50 is the concentration that gives 50% inhibition. For `Cn1cc(S(=O)(=O)N2CCC(Nc3ncc(C(F)(F)F)c(-c4cc(C(N)=O)c(CC(C)(C)O)s4)n3)CC2)cn1` [Example 51, 2-(2-hydroxy-2-methylpropyl)-5-(2-((1-((1-methyl-1H-pyrazol-4-yl)sulfonyl)piperidin-4-yl)amino)-5-(trifluoromethyl)pyrimidin-4-yl)thiophene-3-carboxamide], the IC50 on CDK2/Cyclin E2, in the test with OVCAR3 p-RB and on CDK4/Cyclin D1 was at most 0.1 µM in each case.
As for `Cn1cnc(S(=O)(=O)N2CC[C@H](Nc3ncc(C(F)(F)F)c(-c4cc(C(N)=O)cs4)n3)[C@H](F)C2)c1` [Example 12, 5-(2-(((3R,4S)-3-fluoro-1-((1-methyl-1H-imidazol-4-yl)sulfonyl)piperidin-4-yl)amino)-5-(trifluoromethyl)pyrimidin-4-yl)thiophene-3-carboxamide], the IC50 on CDK2/Cyclin E2, in the test on OVCAR3 p-RB and at CDK4/Cyclin D1 was at most 0.1 µM throughout.
Regarding `Cn1cc(S(=O)(=O)N2CC[C@H](Nc3ncc(C(F)(F)F)c(-c4cc(C(N)=O)cs4)n3)[C@H](F)C2)cn1` [Example 11, 5-(2-(((3R,4S)-3-fluoro-1-((1-methyl-1H-pyrazol-4-yl)sulfonyl)piperidin-4-yl)amino)-5-(trifluoromethyl)pyrimidin-4-yl)thiophene-3-carboxamide], the IC50 at CDK2/Cyclin E2, with OVCAR3 p-RB and at CDK4/Cyclin D1 was at most 0.1 µM throughout.
`CC(O)c1sc(-c2nc(NC3CCN(S(=O)(=O)c4cn(C)cn4)CC3)ncc2C(F)(F)F)cc1C#N` (stereo not drawn) [Example 33, 2-(1-hydroxyethyl)-5-(2-((1-((1-methyl-1H-imidazol-4-yl)sulfonyl)piperidin-4-yl)amino)-5-(trifluoromethyl)pyrimidin-4-yl)thiophene-3-carbonitrile]: the IC50 at CDK2/Cyclin E2, with OVCAR3 p-RB and on CDK4/Cyclin D1 was at most 0.1 µM throughout.
For `Cn1cnc(S(=O)(=O)N2CCC(Nc3ncc(C(F)(F)F)c(-c4ncc(C(O)C(F)(F)F)s4)n3)CC2)c1` (stereo not drawn) [Example 60, 2,2,2-trifluoro-1-(2-(2-((1-((1-methyl-1H-imidazol-4-yl)sulfonyl)piperidin-4-yl)amino)-5-(trifluoromethyl)pyrimidin-4-yl)thiazol-5-yl)ethan-1-ol], the IC50 on CDK2/Cyclin E2, in the test with OVCAR3 p-RB and on CDK4/Cyclin D1 was at most 0.1 µM in each case.
`Cc1sc(-c2nc(N[C@H]3CCN(S(C)(=O)=O)C[C@H]3F)ncc2C(F)(F)F)cc1C(N)=O` [Example 9, 5-(2-(((3R,4S)-3-fluoro-1-(methylsulfonyl)piperidin-4-yl)amino)-5-(trifluoromethyl)pyrimidin-4-yl)-2-methylthiophene-3-carboxamide]: the IC50 on CDK2/Cyclin E2, with OVCAR3 p-RB and at CDK4/Cyclin D1 was at most 0.1 µM throughout.
On to `Cn1cc(S(=O)(=O)N2CC[C@@H](Nc3ncc(C(F)(F)F)c(-c4cc(C(N)=O)cs4)n3)[C@H](F)C2)cn1` [Example 13, 5-(2-(((3R,4R)-3-fluoro-1-((1-methyl-1H-pyrazol-4-yl)sulfonyl)piperidin-4-yl)amino)-5-(trifluoromethyl)pyrimidin-4-yl)thiophene-3-carboxamide], for which the IC50 on CDK2/Cyclin E2, in the test on OVCAR3 p-RB and at CDK4/Cyclin D1 was at most 0.1 µM each time.
On to `CC(C)(O)Cc1cnc(-c2nc(N[C@H]3CCN(S(C)(=O)=O)C[C@H]3F)ncc2C(F)(F)F)s1` [Example 108, 1-(2-(2-(((3R,4S)-3-fluoro-1-(methylsulfonyl)piperidin-4-yl)amino)-5-(trifluoromethyl)pyrimidin-4-yl)thiazol-5-yl)-2-methylpropan-2-ol], for which the figures for the IC50 on CDK2/Cyclin E2, with OVCAR3 p-RB and at CDK4/Cyclin D1 were at most 0.1 µM, 0.1 to 0.5 µM and at most 0.1 µM, respectively.
Take `Cn1cnc(S(=O)(=O)N2CCC(Nc3ncc(C(F)(F)F)c(-c4cc(C(N)=O)c(CC(C)(C)O)s4)n3)CC2)c1` [Example 45, 2-(2-hydroxy-2-methylpropyl)-5-(2-((1-((1-methyl-1H-imidazol-4-yl)sulfonyl)piperidin-4-yl)amino)-5-(trifluoromethyl)pyrimidin-4-yl)thiophene-3-carboxamide]: the IC50 on CDK2/Cyclin E2, in the test with OVCAR3 p-RB and on CDK4/Cyclin D1 was at most 0.1 µM throughout.
On to `Cc1sc(-c2nc(N[C@H]3CCN(S(=O)(=O)c4cn(C)cn4)C[C@H]3F)ncc2C(F)(F)F)cc1C#N` [Example 31, 5-(2-(((3R,4S)-3-fluoro-1-((1-methyl-1H-imidazol-4-yl)sulfonyl)piperidin-4-yl)amino)-5-(trifluoromethyl)pyrimidin-4-yl)-2-methylthiophene-3-carbonitrile], for which the IC50 at CDK2/Cyclin E2, with OVCAR3 p-RB and on CDK4/Cyclin D1 was at most 0.1 µM each time.
Take `Cn1cnc(S(=O)(=O)N2CCC(Nc3ncc(C(F)(F)F)c(-c4nc(C(N)=O)cs4)n3)CC2)c1` [Example 92, 2-(2-((1-((1-Methyl-1H-imidazol-4-yl)sulfonyl)piperidin-4-yl)amino)-5-(trifluoromethyl)pyrimidin-4-yl)thiazole-4-carboxamide]: the IC50 at CDK2/Cyclin E2, in the test on OVCAR3 p-RB and on CDK4/Cyclin D1 was over 0.5 µM each time.
For `C[C@@H]1CN(S(=O)(=O)c2cn(C)cn2)CC[C@@H]1Nc1ncc(C(F)(F)F)c(-c2cc(C#N)c(CC(C)(C)O)s2)n1` [Example 40, 2-(2-hydroxy-2-methylpropyl)-5-(2-(((3R,4S)-3-methyl-1-((1-methyl-1H-imidazol-4-yl)sulfonyl)piperidin-4-yl)amino)-5-(trifluoromethyl)pyrimidin-4-yl)thiophene-3-carbonitrile], the IC50 was at most 0.1 µM on CDK2/Cyclin E2, 0.1 to 0.5 µM with OVCAR3 p-RB and 0.1 to 0.5 µM at CDK4/Cyclin D1.
For the compound `C[C@@H]1CN(S(=O)(=O)c2cnn(C)c2)CC[C@@H]1Nc1ncc(C(F)(F)F)c(-c2ncc(C(C)(C)O)s2)n1` [Example 100, 2-(2-(2-(((3R,4S)-3-methyl-1-((1-methyl-1H-pyrazol-4-yl)sulfonyl)piperidin-4-yl)amino)-5-(trifluoromethyl)pyrimidin-4-yl)thiazol-5-yl)propan-2-ol], the IC50 on CDK2/Cyclin E2, with OVCAR3 p-RB and on CDK4/Cyclin D1 was at most 0.1 µM in each case.
Turning to `Cc1cc(-c2nc(NC3CCN(S(=O)(=O)c4cnn(C)c4)CC3)ncc2C(F)(F)F)sn1` [Example 77, N-(1-((1-methyl-1H-pyrazol-4-yl)sulfonyl)piperidin-4-yl)-4-(3-methylisothiazol-5-yl)-5-(trifluoromethyl)pyrimidin-2-amine], the IC50 on CDK2/Cyclin E2 is at most 0.1 µM; in the test on OVCAR3 p-RB, over 0.5 µM; at CDK4/Cyclin D1, over 0.5 µM.
For `Cn1cc(S(=O)(=O)N2CC[C@@H](Nc3ncc(C(F)(F)F)c(-c4cc(C(N)=O)c(CC(C)(C)O)s4)n3)[C@H](F)C2)cn1` [Example 48, 5-(2-(((3R,4R)-3-fluoro-1-((1-methyl-1H-pyrazol-4-yl)sulfonyl)piperidin-4-yl)amino)-5-(trifluoromethyl)pyrimidin-4-yl)-2-(2-hydroxy-2-methylpropyl)thiophene-3-carboxamide], the IC50 at CDK2/Cyclin E2, with OVCAR3 p-RB and at CDK4/Cyclin D1 was at most 0.1 µM in each case.
With `Cc1sc(-c2nc(N[C@H]3CCN(S(=O)(=O)c4cnn(C)c4)C[C@H]3F)ncc2C(F)(F)F)cc1C#N` [Example 30, 5-(2-(((3R,4S)-3-fluoro-1-((1-methyl-1H-pyrazol-4-yl)sulfonyl)piperidin-4-yl)amino)-5-(trifluoromethyl)pyrimidin-4-yl)-2-methylthiophene-3-carbonitrile], the IC50 on CDK2/Cyclin E2, with OVCAR3 p-RB and at CDK4/Cyclin D1 was at most 0.1 µM in each case.
`Cc1sc(-c2nc(NC3CCN(S(=O)(=O)c4cn(C)cn4)CC3)ncc2C(F)(F)F)cc1C#N` [Example 1, 2-Methyl-5-[2-[[1-(1-methylimidazol-4-yl)sulfonylpiperidin-4-yl]amino]-5-(trifluoromethyl)pyrimidin-4-yl]thiophene-3-carbonitrile]: the IC50 on CDK2/Cyclin E2, with OVCAR3 p-RB and at CDK4/Cyclin D1 was at most 0.1 µM throughout.
With `Cc1sc(-c2nc(NC3CCN(S(C)(=O)=O)CC3)ncc2C(F)(F)F)cc1C#N` [Example 83, 2-methyl-5-(2-((1-(methylsulfonyl)piperidin-4-yl)amino)-5-(trifluoromethyl)pyrimidin-4-yl)thiophene-3-carbonitrile], the IC50 on CDK2/Cyclin E2 is at most 0.1 µM; in the test on OVCAR3 p-RB, 0.1 to 0.5 µM; on CDK4/Cyclin D1, at most 0.1 µM.
On to `Cc1sc(-c2nc(NC3CCN(S(=O)(=O)c4cnn(CC#N)c4)CC3)ncc2C(F)(F)F)cc1C#N` [Example 88, 5-(2-((1-((1-(cyanomethyl)-1H-pyrazol-4-yl)sulfonyl)piperidin-4-yl)amino)-5-(trifluoromethyl)pyrimidin-4-yl)-2-methylthiophene-3-carbonitrile], for which the IC50 at CDK2/Cyclin E2, in the test with OVCAR3 p-RB and at CDK4/Cyclin D1 was at most 0.1 µM each time.
With `C[C@@H]1CN(S(=O)(=O)c2cnc3cccnn23)CC[C@@H]1Nc1ncc(C(F)(F)F)c(-c2cc(C(N)=O)cs2)n1` [Example 22, 5-(2-(((3R,4S)-1-(imidazo[1,2-b]pyridazin-3-ylsulfonyl)-3-methylpiperidin-4-yl)amino)-5-(trifluoromethyl)pyrimidin-4-yl)thiophene-3-carboxamide], the IC50 was at most 0.1 µM at CDK2/Cyclin E2, at most 0.1 µM in the test with OVCAR3 p-RB and 0.1 to 0.5 µM on CDK4/Cyclin D1.

Source of the values: patent US20240150340A1, “CDK Inhibitors And Their Use As Pharmaceuticals” (Prelude Therapeutics Incorporated, priority 2022, published 2024).
